Structures can show the parent of a compound that is named as a salt.
Tests used:
[1] = tested on: Oct-4 protein, fetal human dermal fibroblasts (HDFf); assay: Immunohistochemistry of Oct-4 protein in shRNA-infected cells; assay type: cell-based; conditions: versus uninfected control
Procedure: Cell culture. Fetal human dermal fibroblasts were purchased from Cell Applications (San Diego, Calif.), and were maintained at 37° C. in 95% humidity and 5% CO2 in Fibroblast growth medium (Cell Applications, San Diego, Calif.).
Lentiviral Infection. Fetal human dermal fibroblasts were infected with one of the following compositions: (1) shRNA lentivirus directed to DNMT1; (2) shRNA lentivirus directed toward HDAC7; (3) shRNA lentivirus directed toward DNMT1 and HDAC7; and (4) shRNA lentivirus directed toward HDAC7a and HDAC11. The shRNA construct was obtained from Dharmacon. The shRNA construct directed toward HDAC7a had the following sequence:
(§1) The human dermal fibroblasts were infected with the shRNA following the manufacturer's instructions. HDF were cultured with an without puromycin selection and hES culture conditions (mTeSR Medium, Stem Cell Technology, Vancouver, BC, Canada) on matrigel (BD Biosciences, San Jose Calif.).
Immunohistochemistry. For immunohistochemistry, target shRNA-infected and control cells were grown on chambered slides (LabTek, Napersville, Ill.). Cells were then be fixed with 4% paraformaldehyde, and incubated with a specific antibody directed against pluripotency marker Oct3/4 (Abeam, Cambridge, Mass.) following the manufacturer's protocol. Staining of Oct3/4 was visualized as a red color. […]

[2] = tested on: Sox-2 protein, fetal human dermal fibroblasts (HDFf); assay: Immunohistochemistry of Sox-2 protein in shRNA-infected cells; assay type: cell-based; conditions: versus uninfected control
[3] = tested on: Oct-4, Nanog, Sox-2 mRNA, human dermal fibroblasts (HDFa, HDFn, HDFf); assay: HDAC7 or HDAC11 shRNA lentiviral infection, RT-PCR of Oct-4, Nanog, Sox-2 mRNA; assay type: cell-based
Excerpt: (§2) Human dermal fibroblasts (HDFa, HDFn, and HDFf) were infected with shRNA lentivirus to interfere with HDAC7. In a separate set of experiments, human dermal fibroblasts (HDFa, HDFn, and HDFf) were infected with shRNA lentivirus to interfere with HDAC11. RNA was isolated from HDFs (including puromycin selection) and applied to RT-PCR to analyze expression of target genes, e.g., Oct-4, Nanog, Sox2, various HDACs and various SIRT genes. The shRNA construct included puromycin (antibiotic) resistance as a way to select cells that have been successfully transfected with the shRNA. After transfection, puromycin was added to the culture and cells that were not resistant (therefore not transfected) died, thereby leaving only transfected cells remaining in the culture.
(§3) Cell culture. Human dermal fibroblasts were purchased from Cell Applications (San Diego, Calif.), and were maintained at 37° C. in 95% humidity and 5% CO2 in Fibroblast growth medium (Cell Applications, San Diego, Calif.).
(§4) Lentiviral Infection. Human dermal fibroblasts were infected with a shRNA construct. The shRNA construct was obtained from Dharmacon. The shRNA construct directed toward directed toward HDAC7a had the following sequence:
as §1, with “Calif.). In these sets of experiments, cells were infected with a shRNA construct directed toward either HDAC7, or HDAC11.” for “Calif.).”
(§5) Quantitative RT-PCR. Expression of Oct-3/4 and Nanog was determined by real-time RT-PCR. Briefly, total RNA was prepared from cultures using Trizol Reagent (Life Technologies, Gaithersburg, Md.) and RNeasy Mini kit (Qiagen; Valencia, Calif.) with DNase digestion according to manufacturer's protocol. Total RNA (1 μg) from each sample was subjected to oligo(dT)-primed reverse transcription (Invitrogen; Carlsbad, Calif.). Real-time PCR reactions will be performed with PCR master mix on a 7300 real-time PCR system (Applied Biosystems; Foster City, Calif.). For each sample, 1 μl of diluted cDNA (1:10) will be added as template in PCR reactions. The expression level of Oct-3/4 and Nanog was normalized to glyceraldehyde 3-phosphate-dehydrogenase (GAPD).

[4] = tested on: HDAC genes and SIRT genes mRNA, human dermal fibroblasts; assay: HDAC7 shRNA lentiviral infection, RT-PCR of HDAC and SIRT genes (FIG. 7); assay type: cell-based
Excerpt: as §2, §3, §4
The human dermal fibroblasts were infected with the shRNA following the manufacturer's instructions. […]
Quantitative RT-PCR. Expression of Oct-3/4 and Nanog was determined by real-time RT-PCR. […]

[5] = tested on: HDAC7a and HDAC11 expression, human dermal fibroblasts (HDFa, HDFn, HDFf); assay: HDAC7a shRNA effect on expression of HDAC7a and HDAC11, RT-PCR; assay type: cell-based
Procedure: as §3
Lentiviral Infection. Human dermal fibroblasts were infected with a shRNA construct. The shRNA construct was obtained from Dharmacon. The shRNA construct directed toward HDAC7a had the following sequence:
as §1
as §5, with “HDAC7a” for “Oct-3/4”, “HDAC11” for “Nanog”, “DNase I” for “DNase”, “The expression level of Oct-3/4 and Nanog was normalized to glyceraldehyde 3-phosphate-dehydrogenase (GAPD).” left out

[6] = tested on: Oct-4 gene expression, BJF cells; assay: Small molecules, Oct-4 gene expression by qRT-PCR (Table III), BJF; assay type: cell-based, human
Procedure: as §3
as §5, with “Expression of Oct-4 was determined” for “Expression of Oct-3/4 and Nanog was determined”, “with DNase I digestion according” for “with DNase digestion according”, “level of Cot-4 was normalized” for “level of Oct-3/4 and Nanog was normalized”
Table III provides the effects of small molecule inhibitors on Oct-4 gene expression in human somatic cells. mRNA levels were determined by real time qRT-PCR and normalized with GAPDH. The abbreviations are as follows: HDACi (histone deacetylase inhibitor DNMTi (DNA methyltransferase inhibitor); SIRTi (sirtuin, Class III HDAC inhibitor); LdeMi (lysine demethylase inhibitor); SIRT1a (sirtuin 1 activator); TSAi (trichostatin A inhibitor); HDMi/LSD1i (histone demethylase inhibitor/Lysine demethylase 1 inhibitor).

[7] = tested on: Oct-4 gene expression, adult human dermal fibroblasts (HDFa); assay: Small molecules, Oct-4 gene expression by qRT-PCR (Table III), HDFa; assay type: cell-based
Procedure: as §3
as §5, with “Expression of Oct-4 was determined” for “Expression of Oct-3/4 and Nanog was determined”, “with DNase I digestion according” for “with DNase digestion according”, “level of Cot-4 was normalized” for “level of Oct-3/4 and Nanog was normalized”
The abbreviations are as follows: HDACi (histone deacetylase inhibitor DNMTi (DNA methyltransferase inhibitor); SIRTi (sirtuin, Class III HDAC inhibitor); LdeMi (lysine demethylase inhibitor); SIRT1a (sirtuin 1 activator); TSAi (trichostatin A inhibitor); HDMi/LSD1i (histone demethylase inhibitor/Lysine demethylase 1 inhibitor).

[8] = tested on: Oct-4 gene expression, HLFa; assay: Small molecules, Oct-4 gene expression by qRT-PCR (Table III), HLFa; assay type: cell-based, human; conditions: dose 500 uM, Rx Time 5

HDAC7 shRNA: shRNA lentiviral construct from Dharmacon directed toward HDAC7a, SEQ ID NO. 1: GCTTTCAGGATAGTCGTGA (shRNA lentiviral construct)
Oct-4 protein expression [1]: minimal detection
Sox-2 protein expression [2]: minimal protein expression
level of mRNA for the gene Oct-4 ([3]; HDFa and HDFn, presence and absence of puromycin, compared to Nanog): more modest increase
expression of Nanog increased over time ([3]; HDFa and HDFn, with and without puromycin selection): at least six-fold
level of mRNA for the gene Nanog ([3]; HDFa, HDFn and HDFf, presence and absence of puromycin): increased
level of mRNA for the gene Nanog ([3]; HDFf, compared with HDFa and HDFn): not as robustly
level of mRNA for the Sox-2 gene ([3]; fetal human dermal fibroblasts (HDFf)): No induction
level of HDAC7 mRNA reduced ([4]; around three days after lentiviral infection): about 50 % of basal level
expression of HDAC 9, HDAC5 and HDAC11 mRNA ([4]; three days after HDAC7 shRNA infection): inducted
expression of HDAC7a [5]: decreased
expression of HDAC11 ([5]; presence and absence of puromycin): increased

CC(NC(=O)c1ccccc1/N=C/c1c(O)ccc2ccccc12)c1ccccc1 (centres unmarked) [Sirtinol]
Oct4 FC ([6]; dose .05 mM, Rx Time 7): <2

Na Phenylbutyrate
Oct4 FC ([7]; dose 2.5 mM, Rx Time 4): 2.5

Valproxam
Oct4 FC ([7]; dose .5 mM, Rx Time 4): <2

O=C(O[C@@H]1Cc2c(O)cc(O)cc2O[C@@H]1c1cc(O)c(O)c(O)c1)c1cc(O)c(O)c(O)c1 [EGCG]
Oct4 FC ([6]; dose 1 uM, Rx Time 4): <2

COCCCn1c(N)c(C(=O)NC2CCCC2)c2nc3ccccc3nc21 [SIRT1 Activator 3]
Oct4 FC ([7]; dose 500 uM, Rx Time 4): 2

O=C1CCc2c(ccc3ccccc23)O1 [Splitomycin]
Oct4 FC ([7]; dose .5 mM, Rx Time 4): 2

O=C(c1ccc(Cl)cc1Cl)n1nnc2ccccc21 [ITSA]
Oct4 FC ([7]; dose .05 mM, Rx Time 4): <2

Depudecin
Oct4 FC ([7]; dose 50 uM, Rx Time 4): <2

O=C(O)CCCC[C@@H]1SC[C@@H]2NC(=O)N[C@@H]21 [Biotin]
Oct4 FC ([7]; dose 500 uM, Rx Time 4): <2

O=C(NCCSSCCNC(=O)/C(Cc1ccc(O)c(Br)c1)=N/O)/C(Cc1ccc(O)c(Br)c1)=N/O [Psammaplin-A]
Oct4 FC ([6]; dose 1.5 mM, Rx Time 7): 2.2

Oc1ccc(C=Cc2cc(O)cc(O)c2)cc1 [Resveratrol]
Oct4 FC ([6]; dose .5 mM, Rx Time 4): <2

O=C(O)CCCCC1CCSS1 (stereo not drawn) [ALA, Alpha-lipoic acid]
Oct4 FC ([7]; dose 50 uM, Rx Time 4): 3.5

DNMT1 shRNA: shRNA construct directed toward DNMT1, SEQ ID NO. 4: GTCTACCAGATCTTCGATA (listed as Homo Sapiens)
Oct-4 protein expression [1]: clearly increased
Sox-2 protein expression [2]: only a modest amount

NC(=O)c1cccnc1 [Nicotinamide]
Oct4 FC ([7]; dose .028 mM, Rx Time 4): 2.3

NC(=O)C1CCCc2c1[nH]c1ccc(Cl)cc21 (centres unmarked) [EX-527]
Oct4 FC ([7]; dose 50 uM, Rx Time 4): 2

CCN(CC)CCOC(=O)c1ccc(N)cc1 [Procaine HCL]
Oct4 FC ([7]; dose 500 uM, Rx Time 8): <2

N[C@@H]1C[C@H]1c1ccccc1 [Tranylcypromine]
Oct4 FC ([7]; dose 2.5 mM, Rx Time 4): 2.7

O=c1ncccn1[C@@H]1O[C@H](CO)[C@@H](O)[C@H]1O [Zebularine]
Oct4 FC ([6]; dose .05 mM, Rx Time 6): <2

NNc1nncc2ccccc12 [Hydralazine HCL]
Oct4 FC ([7]; dose 500 uM, Rx Time 2): <2

Nc1ccccc1NC(=O)CCCCCCC(=O)Nc1ccccc1 [CAY 10433]
Oct4 FC ([7]; dose 50 uM, Rx Time 4): <2

O=C(O)C(Cc1c[nH]c2ccccc12)N1C(=O)c2ccccc2C1=O (centres unmarked) [RG108]
Oct4 FC [8]: <2

Cn1cc(C2=C(c3cn(CCCSC(=N)N)c4ccccc34)C(=O)NC2=O)c2ccccc21 [RO-31-8220]
Oct4 FC ([6]; dose 2.5 mM, Rx Time 4): <2

NC1CC1c1ccccc1 (centres unmarked) [2-PCPA]
Oct4 FC ([6]; dose 1 mM, Rx Time 8): <2
